Reference: publication PMC8424300, “Identification of novel microtubule inhibitors effective in fission yeast and human cells and their effects on breast cancer cell lines” (Open Biology, 2021)
Like-named read-outs stand apart in the source and are kept apart here. One block for each molecule: values may come before it.

Experiments:
[1] = tested on: HeLa cells; test: Time-lapse live imaging of mitotic progression and cell fate in HeLa cells (H2B-mCherry, EGFP-α-tubulin); type: cell-based, human; settings: for mitotic duration (prophase to cytokinesis): 24 h imaging, DMSO control 77 ± 6 min; for phenotype after mitotic arrest: 0.1 and 0.25 µM compound
Experimental: To determine whether these 34 compounds also induce mitotic abnormalities in human cells, a second screen of these compounds was conducted using HeLa cells. We used time-lapse microscopy to monitor mitotic progression in HeLa cells expressing mCherry-tagged histone H2B to mark chromatin, and EGFP-tagged α-tubulin to monitor microtubules over a 24 h time period in the presence of 2 µM of each of the 34 compounds. The duration of mitosis was determined by live-cell imaging, defined as the period from prophase to cytokinesis based on chromatin and microtubule morphologies (figure 2a). The control DMSO-treated cells progressed through mitosis with a mean mitotic duration of 77 ± 6 min. Among the 34 compounds we tested, nine caused a significant increase in mitotic duration in human cells (figure 2a), ranging from 122 ± 42 min (F15) to 720 ± 53 min (C16). […] As described in the Discussion, we have not carried out a detailed analysis for B8 in this study. To determine whether these cell deaths were caused by apoptosis, caspase activity was assayed for 24 h using time-lapse microscopy in the presence of the 12 compounds. Caspase 3 and Caspase 7 activities were observed 12–24 h after the addition of the compounds (electronic supplementary material, figure S1A). There were also other indications of apoptosis including the morphological chances reminiscing of membrane blebbing, chromatin condensation and cell explosion (electronic supplementary material, figure S1B). Caspase-mediated apoptosis induction is similar to the effects of mitotic arrest caused by anti-microtubule drugs in HeLa cells. […] We conclude that these 12 compounds cause mitotic arrest followed by cell death through apoptotic activation.
Figure 2. Effect of compounds on mitotic progression in HeLa cell (a). Duration of mitosis was analysed by live imaging of HeLa cells stably expressing H2B-mcherry (red) and EGFP-a tubulin (green) treated in the presence of 0.5 µM (K1, L1, J1) or 2 µM (C16, E2, O12, M2, I15, J3, I2, A15, F15) compound for 24 h and the time in mitosis was measured in 200 cells. DMSO-treated cells are shown, which served as the vehicle control. Show mean as ‘+’. (b). The Cell fate after mitosis (normal division, abnormal division or cell death) was quantitatively assessed after the mitotic arrest observed in (a). (c) Dose-dependent change of phenotypes after mitotic arrest with K1, L1 and J1.
For live-cell imaging experiments, 200 000 cells were seeded onto glass-bottom culture dishes (MatTek P35GC-1.5-14-C). Cells were grown overnight before the addition of the compound, and the culture media was replaced with fresh media lacking phenol red to limit phototoxicity before imaging.
Live-cell imaging was performed in a LCV110 U VivaView FL incubator microscope (Olympus) equipped with an X-Cite-exacte illumination source (Excelitas Technologies) and Orca-R2 CCD camera (Hamamatsu Photonics). For screening, images were acquired with a 20 × objective every 15 min for 24–48 h in the differential interference contrast (DIC), m-cherry and GFP channels. For assessment of apoptosis, the cells were monitored every 15 min for 24 h. Individual cells were manually analysed using the CellCognition browser.

[2] = biological target: T1, porcine brain tubulin heterodimer (Sus scrofa, UniProt P02550+P02554); test: In vitro tubulin polymerization assay; type: biochemical; settings: 37°C; for IC50: figure 3c, 1 h
T1 construct: highly purified porcine brain tubulin heterodimer; purchased Cytoskeleton T240 (kit BK011P); host or cells: porcine brain tissue
T1 sequence (P02554 whole entry): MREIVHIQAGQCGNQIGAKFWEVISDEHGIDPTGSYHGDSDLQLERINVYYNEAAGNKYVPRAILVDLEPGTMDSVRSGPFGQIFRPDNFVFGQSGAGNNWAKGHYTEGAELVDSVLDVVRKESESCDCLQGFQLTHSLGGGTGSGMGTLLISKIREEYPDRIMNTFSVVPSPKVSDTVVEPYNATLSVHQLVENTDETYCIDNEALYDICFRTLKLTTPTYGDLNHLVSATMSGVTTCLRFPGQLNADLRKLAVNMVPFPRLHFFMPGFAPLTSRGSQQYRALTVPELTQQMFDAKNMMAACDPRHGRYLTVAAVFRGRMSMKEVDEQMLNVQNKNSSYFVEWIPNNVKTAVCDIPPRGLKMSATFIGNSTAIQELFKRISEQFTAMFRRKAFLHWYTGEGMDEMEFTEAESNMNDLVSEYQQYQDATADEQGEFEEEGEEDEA
T1 sequence (P02550 whole entry): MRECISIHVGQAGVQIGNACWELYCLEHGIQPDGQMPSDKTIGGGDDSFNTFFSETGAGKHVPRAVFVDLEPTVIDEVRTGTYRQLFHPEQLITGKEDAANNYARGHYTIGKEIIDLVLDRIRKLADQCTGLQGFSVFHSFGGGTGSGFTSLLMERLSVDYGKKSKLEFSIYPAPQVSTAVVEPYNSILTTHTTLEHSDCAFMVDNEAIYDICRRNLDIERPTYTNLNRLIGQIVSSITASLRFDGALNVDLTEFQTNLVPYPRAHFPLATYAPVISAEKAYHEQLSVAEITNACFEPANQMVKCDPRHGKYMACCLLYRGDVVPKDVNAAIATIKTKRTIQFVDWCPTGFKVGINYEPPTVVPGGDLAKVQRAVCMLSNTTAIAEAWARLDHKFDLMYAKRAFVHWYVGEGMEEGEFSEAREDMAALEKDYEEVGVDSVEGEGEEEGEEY
Experimental: To determine whether the 12 compounds affected mitotic spindle organization by directly interfering with tubulin polymerization, we performed in vitro tubulin polymerization assays. […] Tubulin polymerization was monitored every 1 min by measuring fluorescence absorbance at 340 nm for 1 h.
Figure 3. […] Tubulin was incubated with 5 µM of the compounds and DMSO for 60 min at 37°C. The fluorescence increase was monitored every minute at 340 nm. […] (b). […] Nocodazole (NOC) was used as the control. (c). […] (d) The same experiment as (c) but carried out at a different time.
The Tubulin Polymerization HTS Assay Kit (Cytoskeleton, BK011P) was used according to the manufacturer's instructions. All components were added into a 96-well microtiter plate (Corning Costar, cat. no. 3686), then the tubulin reaction mixture was quickly added to the wells, and tubulin polymerization was initiated and monitored every 1 min at 37°C for 1 h by recording fluorescence of excitation wavelength at 340 nm and emission at 450 nm. The tubulin reaction mixture was composed of 80 mM PIPES (pH 6.9), and 1 mM MgCl2, 1 mM EGTA, 1 mM GTP and 2 mg ml^−1 of highly purified porcine brain tubulin heterodimer (Cytoskeleton, cat. no. T240).

[3] = tested on: MDR-sup fission yeast; test: Phenotypic assay of microtubule organization in MDR-sup strain expressing GFP-atb2; type: cell-based, Schizosaccharomyces pombe; settings: same phenotype = no interphase microtubules or mitotic spindles detectable, tubulin in nucleus; figure S2
Experimental: We have previously screened a collection of 10 371 small molecules to identify compounds that inhibit the growth of a multiple-drug-sensitive fission yeast strain (MDR-sup). We selected 248 compounds (2.4% of the total) that inhibited fission yeast cell growth rate by at least 50% (figure 1a) and subsequently conducted a phenotypic screen of these to identify drugs that affect microtubule organization (figure 1b). After the MDR-sup cells were treated with 5 µM of each compound for 3 h, microtubules were monitored using GFP tagged α-tubulin Atb2 and live-cell fluorescence microscopy. In untreated interphase cells, microtubules form long cytoplasmic arrays that run parallel to the long cellular axis, and in mitotic cells, microtubules form a bipolar spindle in the nucleus and the cytoplasmic microtubules disappear (figure 1c(i), arrow). […] This screen identified 34 compounds that induced cytological phenotypes indicative of defects in microtubule organization or function.
Figure 1. Phenotypic screening in MDR-sup fission yeast (a). Growth assay screening using MDR-sup strain. The optical density was measured with 20 µM of each compound and 248 compounds that gave at least 50% growth inhibition were used for further phenotyping marked by the red lines. Growth was normalized to DMSO-treated cells. (b) Schematic representation of the screening workflow. (c) Examples of the phenotypic assay using L1, P2 and B8 in the MDR-sup strain expressing GFP-atb2 (tubulin) are shown. Cells were incubated in 5 µM compound for 3 h and atb2 signals were detected in living cells. (i) Cells in absence of any compound. In interphase cells, α-tubulin Atb2 protein was detected in the nucleus and interphase microtubules, while mitotic spindles were detected in mitotic cells (arrows). (ii) In the presence of L1, microtubules were depolymerized and tubulin signals were detected distributed throughout the nucleus. (iii) In the presence of P2, short spindles were detected but anaphase spindles were not. (iv) In the presence of B8, interphase microtubules were not detected, while, dots were detected. […]

[4] = tested on: WTβIII HeLa cell line; test: Cell viability in HeLa cell line overexpressing wild-type βIII tubulin; type: cell-based; settings: Homo sapiens
Experimental: One of the main mechanisms of drug resistance is due to the overexpression of class III β tubulin. […] The ability of L1 to overcome β III tubulin-mediated multidrug resistance was evaluated in two HeLa isogenic cell lines.
Figure 7.
(§1) Cells were plated in 384-well plates at a density of 800 cells per well in 22.5 µl of media. After 24 h, 2.5 µl drug was diluted in media and was added to each well. Following 5 days of incubation, viability was assessed using CellTiter-Glo (Promega) according to the manufacture's protocol. Luminescence in each well was measured using a Synergy Neo2 plate reader (BioTek).

[5] = tested on: BT549, CAL51 and MB-157 breast cancer cell lines; test: Viability dose-response in breast cancer cell lines; type: cell-based; settings: Homo sapiens, 96 h; range over the breast cell lines and the non-cancer cell line MCF-10A; 4 days of treatment
Experimental: The sensitivity of the inhibitors L1, J3, A15 and M2 were evaluated in three breast cancer cell lines, (BT549, CAL51 and MB-157) and a non-cancer cell line from the human mammary gland, MCF-10A (figure 8). Drug sensitivity was determined by culturing breast cancer cell lines (black lines) and the non-cancer cell line (red line) with a range of concentrations of each compound, and viability was measured after 4 days of treatment in triplicate.
Figure 8. Dose–response curves in three cancer cell lines (BT549, CAL51 and MB-157) are shown in black and non-cancer cell line; MCF-10A is shown in red. They were subjected to a dose–response matrix of the tubulin inhibitor, L1, A15, M2 and J3, respectively. Viability relative to the vehicle control was measured […] after treatment. Mean ± s.e.m. for n = 3 experiments is shown.
as §1

[6] = tested on: CAL51 cells; test: Clonogenic (colony-forming) assay; type: cell-based, human; settings: 0.1 nM BI2536 alone, 12 h exposure, 9 days growth
Experimental: Finally, a clonogenic assay was used to further evaluate the synergy effects between the L1 and Plk1 inhibitors to inhibit colony formation of breast cancer CAL51 cells after a 12 h drug exposure. The percentages of colony formation of cells treated with 0.1 nM BI2536 alone and 0.5 µM L1 alone were 89% and 67%, respectively, while cells treated with both 0.1 nM BI2536 and 0.5 µM L1 together were 2% (figure 10) indicating strong synergetic effects in colony formation.
Figure 10. Quantification of the colony formation experiments (n = 3) after a 12 h exposure. CAL51 cells were treated with vehicle control, 0.1 nM BI2536, 0.5 µM L1 or 0.1 nM BI2536 and 0.5 µM L1 for 12 h. Cells were grown for 9 days in fresh media after 12 h exposure. Mean ± s.e.m. (n = 3) is shown.
CAL51 cells were plated at a density of 200 cells per 60 mm tissue culture dish. After 24 h, they were treated with vehicle (DMSO), 0.1 nM BI2538, 0.5 µM L1 or the combination of 0.1 nM BI2538 and 0.5 µM L1, respectively, for 12 h. After an exposure, the cells were washed with warm sterile PBS, and incubated for additional 9 days in fresh media. After the incubation, cells were fixed and stained with a 20% MeOH: 0.01% crystal violet solution for 30 min. Colonies were counted using a stereomicroscope in three independent experiments.

[7] = read-out: IC50 of tubulin polymerization

SMILES: Nc1nn(S(=O)(=O)c2c(F)c(F)c(F)c(F)c2F)cc1-c1ccc(Cl)cc1 [C16]
- mitotic duration (prophase to cytokinesis) ([1]; 2 µM compound): 720 ± 53 min

- effect on in vitro tubulin polymerization ([2]; 5 µM compound, 60 min): no observable effects on polymerization
SMILES: CC(C)(C)C#C/C=N/n1nnc(-c2ccccc2)n1 [F15]
- mitotic duration (prophase to cytokinesis) ([1]; 2 µM compound): 122 ± 42 min

SMILES: COC(=O)Nc1nc2ccc(C(=O)c3cccs3)cc2[nH]1 [NOC, nocodazole, reference compound]
- microtubule phenotype with known inhibitors of microtubule polymerization [3]: same phenotype
- IC50 ([2]; IC50 of tubulin polymerization): 560 nM

- IC50 [2, 7]: 590 nM
SMILES: O=[N+]([O-])C1=Cc2ccccc2OC1c1ccc2c(c1)OCO2 (centres unmarked) [K1]
- cell fate ([1]; 0.5 µM compound): arrested cells initially in mitosis, followed by cell death
- cell fate ([1]; 2 µM compound): immediately induced cell death independent of the phase of the cell cycle
- phenotype after mitotic arrest [1]: abnormal multipolar, asymmetric cell divisions, generating 3–4 daughter cells

SMILES: COc1ccc(C2Oc3ccc4ccccc4c3C=C2[N+](=O)[O-])cc1OC (centres unmarked) [J1]
- cell fate ([1]; 0.5 µM compound): arrested cells initially in mitosis, followed by cell death
- cell fate ([1]; 2 µM compound): immediately induced cell death independent of the phase of the cell cycle
- phenotype after mitotic arrest [1]: abnormal multipolar, asymmetric cell divisions, generating 3–4 daughter cells

- IC50 [4]: 5.6 nM
SMILES: CC(=O)O[C@H]1C(=O)[C@@]2(C)[C@H]([C@H](OC(=O)c3ccccc3)[C@]3(O)C[C@H](OC(=O)[C@H](O)[C@@H](NC(=O)c4ccccc4)c4ccccc4)C(C)=C1C3(C)C)[C@]1(OC(C)=O)CO[C@@H]1C[C@@H]2O [paclitaxel]

SMILES: CCCCNC(=O)n1c(NC(=O)OC)nc2ccccc21 [benomyl]
- microtubule phenotype with known inhibitors of microtubule polymerization [3]: same phenotype

- IC50 [2, 7]: 220 nM
SMILES: N#CCCS(=O)(=O)c1nnnn1-c1ccccc1 [M2]
- IC50 [5]: 1400 to 1900 nM

SMILES: CC[C@@H]1C(=O)N(C)c2cnc(Nc3ccc(C(=O)NC4CCN(C)CC4)cc3OC)nc2N1C1CCCC1 [BI2536, reference compound]
- percentage of colony formation [6]: 89%
